What was measured:
Sigma-2 sites = biological target: T1, Sigma-2 sites (Rattus norvegicus, UniProt Q5U3Y7); experiment: σ2 binding assay, [^3H]DTG in rat liver membranes in the presence of 100 nM (+)-pentazocine
T1 sequence (Q5U3Y7 1-176): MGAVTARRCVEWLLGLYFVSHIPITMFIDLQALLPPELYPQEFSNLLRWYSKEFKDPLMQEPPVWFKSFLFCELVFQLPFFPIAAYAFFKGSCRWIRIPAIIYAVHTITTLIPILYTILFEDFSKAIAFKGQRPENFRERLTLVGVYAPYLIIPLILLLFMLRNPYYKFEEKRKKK
Description: Assays were terminated by the addition of ice-cold 10 mM Tris-HCl, pH 8.0 followed by rapid filtration through Whatman GF/B glass fiber filters (presoaked in 0.5% polyethylenimine) using a Brandel cell harvester (Gaithersburg, Md.). Filters were then washed twice with 5 mL of ice cold buffer Nonspecific binding was determined in the presence of 5 μM DTG. Liquid scintillation counting was carried out in EcoLite(+) (ICN Radiochemicals; Costa Mesa, Calif.) using a Beckman LS 6000IC spectrometer with a counting efficiency of 50%. […] Typical counts for guinea pig brain were 16 dpm/μg protein for total binding, 2 dpm/μg protein for nonspecific binding, and 14 dpm/μg protein for specific binding.
(§1) The IC50 values at sigma sites were determined in triplicate from non-linear regression of binding data as analyzed by JMP (SAS Institute; Cary, N.C.), using 5-10 concentrations of each compound. Ki values were calculated using the Cheng-Prusoff equation and represent mean values ±SEM. All assays were done in triplicate unless otherwise noted.

Sigma-1 binding sites = Sigma-1 binding sites (Cavia porcellus, UniProt Q60492); experiment: σ1 binding assay, [^3H](+)-pentazocine in guinea pig brain membranes
Chain of Sigma-1 binding sites (Q60492 whole entry): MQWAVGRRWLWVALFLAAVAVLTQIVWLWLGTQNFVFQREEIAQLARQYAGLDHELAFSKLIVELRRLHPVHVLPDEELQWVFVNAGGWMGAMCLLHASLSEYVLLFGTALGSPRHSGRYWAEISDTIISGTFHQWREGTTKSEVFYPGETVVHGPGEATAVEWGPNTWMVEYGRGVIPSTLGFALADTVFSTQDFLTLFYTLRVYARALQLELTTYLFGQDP
Description: Test compounds were dissolved in ethanol (7 concentrations ranging from 1-1000 nM) then diluted in buffer for a total incubation volume of 0.5 mL. Assays were terminated by the addition of ice-cold 10 mM Tris HCl, pH 8.0 followed by rapid filtration through Whatman GF/B glass fiber filters (presoaked in 0.5% polyethylenimine) using a Brandel cell harvester (Gaithersburg, Md.). Filters were washed twice with 5 ML of ice cold buffer. Nonspecific binding was determined in the presence of 10 μM (+)-pentazocine. Liquid scintillation counting was carried out in EcoLite (+) (ICN Radiochemicals; Costa Mesa, Calif.) using a Beckman LS 6000IC spectrometer with a counting efficiency of 50%. Typical counts were 70 dpm/μg protein for total binding, 6 dpm/μg protein for nonspecific binding, and 64 dpm/μg protein for specific binding.
as §1

Row | Structure (SMILES) | Ki (Sigma-2 sites) | Ki (Sigma-1 binding sites)
1 | COc1ccc(OC)c(NC(=O)O[C@H]2C[C@H]3CCC[C@@H](C2)N3Cc2ccccc2)c1 [Compound 5, (3-endo)-9-Benzyl-9-azabicyclo[3.3.1]nonanyl-3-N-(2′, 5′-dimethoxyphenyl)-carbamate] | 28.2 nM | 329 nM
2 | O=C(Nc1ccc(Cl)c(Cl)c1)O[C@H]1C[C@H]2CC[C@@H](C1)N2Cc1ccccc1 [Compound 10, (3-endo)-8-Benzyl-8-azabicyclo[3.2.1]octyl-3-N(3′, 4′-dichlorophenyl)-carbamate] | 16.2 nM | 716 nM
3 | CN1[C@@H]2CC[C@H]1C[C@@H](OC(=O)Nc1ccc(Cl)c(Cl)c1)C2 [Compound 2, (3-endo)-8-Methyl-8-azabicyclo[3.2.1]octyl-3-N-(3′, 4′-dichlorophenyl)-carbamate] | 36.9 nM | > 1000 nM
4 | COc1cc(OC)c(NC(=O)O[C@H]2C[C@H]3CCC[C@@H](C2)N3Cc2ccccc2)cc1Cl [Compound 6, (3-endo)-9-Benzyl-9-azabicyclo[3.3.1]nonanyl-3-N-(5′-chloro-2′, 4′-dimethoxyphenyl)carbamate] | 22.9 nM | 189 nM
5 | COc1ccc(Cl)cc1NC(=O)O[C@H]1C[C@H]2CCC[C@@H](C1)N2Cc1ccccc1 [Compound 7, (3-endo)-9-Benzyl-9-azabicyclo[3.3.1]nonanyl-3-N-(5′-chloro-2′-methoxyphenyl)carbamate] | 63.5 nM | > 1000 nM
6 | O=C(Nc1ccc(Cl)c(Cl)c1)O[C@H]1C[C@H]2CCC[C@@H](C1)N2Cc1ccccc1 [Compound 4, (3-endo)-9-Benzyl-9-azabicyclo[3.3.1]nonanyl-3-N-(3′, 4′-dichlorophenyl)-carbamate] | 91.9 nM | 33.3 nM
7 | COc1ccc(Cl)cc1NC(=O)O[C@H]1C[C@H]2CC[C@@H](C1)N2C [Compound 3, (3-endo)-8-Methyl-8-azabicyclo[3.2.1]octyl-3-N-(2′-methoxy-5′-chloro-phenyl)-carbamate] | 156 nM | > 1000 nM
8 | CN1[C@@H]2CCC[C@H]1C[C@@H](OC(=O)Nc1ccc(Cl)c(Cl)c1)C2 [Compound 8, (3-endo)-9-Methyl-9-azabicyclo[3.3.1]nonanyl-3-N-(3′, 4′-dichlorophenyl)-carbamate] | 50.3 nM | 595 nM
9 | COc1ccc(OC)c(NC(=O)O[C@H]2C[C@H]3CC[C@@H](C2)N3Cc2ccccc2)c1 [Compound 9, (3-endo)-8-Benzyl-8azabicyclo[3.2.1]octyl-3-N-(2′,5′-dimethoxyphenyl)-carbamate] | 22.1 nM | 72.4 nM

— patent US6676925B1, “Sigma-2 receptors as biomarkers of tumor cell proliferation” (priority 1996, dated 2004)
